The values below come from publication PMC6270099, “Synthesis, Biological Evaluation, and Pharmacokinetic Study of Novel Liguzinediol Prodrugs” (Molecules, 2013).

Data set [1] can be described thus: Pharmacokinetics of LZDO in rats after intragastric administration of prodrug 3. The data set is classed as in vivo, rat. The settings on record: rats (data not shown). The method, then:
Pharmacokinetic parameters including half-life, clearance, and bioavailability are important properties of a drug candidate. […] The major pharmacokinetic parameters of LZDO were calculated using a noncompartment model based on statistical moment. The pharmacokinetic parameters of LZDO after intragastric administration of prodrug 3 at 10, 20 and 40 mg/kg in rats are summarized in Table 2. The pharmacokinetic parameters of LZDO after intragastric administering LZDO at 10, 20 and 50 mg/kg in rats are summarized in Table 3 [19]. Prodrug 3 was converted completely within 2 h in rats (data not shown).
Sprague-Dawley rats (male, weighing 200 ± 20 g) were obtained from Slack Laboratory Animal Site (Shanghai, China) and kept in an environmentally controlled breeding room for at least five days before experimentation. The rats were fasted overnight but with free access to water before the test. Animal welfare and experimental procedures were strictly in accordance with the guide for the care and use of laboratory animals. […] The collected blood samples were pretreated by the aforementioned method (sample dilutions were made when necessary) and the concentrations of LZDO and prodrug 3 in each sample were finally determined based on the validated HPLC method. […]

The test system of data set [2] is isolated Langendorff-perfused rat hearts. In words: Ex vivo Langendorff-perfused rat heart, cardiac performance. The settings on record: for ∆% +dP/dtmax / ∆% LVDP / ∆% −dP/dtmax: increase vs. control; for LVDP: isolated rat heart, mean ± SD, n = 6. The method, then:
The cardiac contractility and safety of prodrugs 3–5 were evaluated on the myocardium in normal isolated rat hearts with LZDO as a positive control. Prodrugs 3–5 exerted positive inotropic effects in a dose-dependent manner. The increased rate in left ventricular developed pressure (LVDP, accepted as contractile force), +dP/dtmax (used as an index of contractility), the maximum rate of pressure decrease of the left ventricle ([…], used as an index of diastolic function) and the heart rate (HR, used as an index of heart muscle oxygen consumption) of these compounds vs. control are listed in Table 1.
All commercial reagents and solvents were used without further purification unless otherwise specified. Melting points were determined using a model Buchi B-450 apparatus. ESI-MS were recorded on a TOF mass spectrometer (Applies-Biosystem Mariner). IR spectra were acquired by using a THERMO IR spectrometer Model Nicolet-100. ^1H- and ^13C-NMR spectra (500/125 MHz) were recorded on a Bruker Advance 500 spectrophotometer. Mass spectra were recorded on a ZAB-HS mass spectrometer and are reported as m/z values. HPLC analysis was conducted on a Waters 2695 HPLC instrument equipped with a UV detector (model 2489). LZDO and prodrugs 3–5 were analysed by HPLC, and their purity was confirmed to be greater than 98.0%. In vitro metabolic stability analysis was conducted by a HPLC method, using stock standard solutions of LZDO and prodrugs that were prepared in water at a concentration of 30 mM. The positive inotropic effects on the myocardium of LZDO and prodrugs 3–5 in vitro were evaluated on Langendorff-perfused hearts isolated from normal Sprague-Dawley rats. A HPLC method was applied to measure the rat plasma concentrations of LZDO and prodrug 3 after intragastric administration of prodrug 3 in the rats.
Sprague-Dawley adult male rats weighing 260–320 g were anaesthetised by intraperitoneal administration of 20% urethane (1.2 g/kg). The hearts were quickly removed and placed into an ice-cold modified buffer until contractions ceased. The heart was cleaned of surrounding tissues, mounted on the aortic cannula of the Langendorff perfusion system apparatus, and perfused with oxygenated buffer (mM): NaCl 117, KCl 5.7, CaCl2 1.8, MgCl2 1.7, NaHCO3 4.4, NaH2PO4 1.5, HEPES 20 and glucose 11. The buffer was equilibrated with 95% O2 and 5% CO2 and adjusted to pH 7.4 with NaOH before it entered the heart. An epicardial electrogram was registered using two stainless steel electrodes, one attached to the apex of the heart and the other to the aortic cannula. To obtain an isovolumetrically beating preparation, a latex balloon filled with water and connected by a catheter to a transducer was inserted through the left atrium into the left ventricle and inflated to provide an end-diastolic pressure between 8 and 12 mm Hg. Before each experimental protocol was initiated, the isolated hearts were set at a mean arterial pressure of 60–80 mm Hg and allowed to stabilise at 37 °C for 40–60 min. The isolated rat hearts were then perfused in sequence with 1, 10, and 100 μM of LZDO and prodrugs 3–5 in each group. A RM6240B/C four channel physiological recording instrument (Chengdu Instrument Factory, Chengdu, China) was used for continuous recording of LVSP, LVEDP, HR (derived from electrogram), +dP/dtmax and −dP/dtmax throughout the experiments. The criteria for established stability were LVDP > 50 mmHg, +dP/dtmax > 1,600 mmHg·s^−1, heart rate > 180 beats·min^−1 and normal sinus rhythm. The hearts were not studied if they had weak contractility (+dP/dtmax < 1,600 mmHg·s^−1) and severe arrhythmia. Diastolic balloon pressure was maintained at 8 mmHg. LVDP was calculated as the difference between the systolic and diastolic pressures. The results are expressed as the mean value of hemodynamic variables (n = 6). Statistical analysis was performed using SPSS for Windows (version 13.0). Data were analyzed by One-way ANOVA. […]

Marks after values point to notes of the source that are not given here.

With `CC(=O)OCc1nc(C)c(COC(C)=O)nc1C` [compound 3], the “time to complete conversion of prodrug in rats” value in data set [1] is listed as at most 2 h. Also, in data set [2] (1 μM), the “+dP/dtmax” value is reported as 1,641 ± 29 mmHg/s, the HR worked out at 203 ± 15 beat·min^−1, the “−dP/dtmax” value is −1,139 ± 76 mmHg/s and the “∆% +dP/dtmax” value is on record as 1.9 ± 0.5%. In addition, in data set [2] (1 μM), the “∆% LVDP” value came to 15.0 ± 5.5%, the “∆% −dP/dtmax” value came out at 4.9 ± 5.9% and the LVDP is 63 ± 2 ^b mmHg. In addition, in data set [2] (10 μM), the “+dP/dtmax” value is 1,768 ± 91 ^bd mmHg/s, the HR is reported as 204 ± 14 beat·min^−1, the “−dP/dtmax” value is reported as −1,184 ± 75 ^a mmHg/s and the “∆% +dP/dtmax” value worked out at 9.8 ± 7.0%. In data set [2] (10 μM), the “∆% LVDP” value is given as 26.3 ± 7.7%, the “∆% −dP/dtmax” value is 9.0 ± 5.1% and the LVDP was 69 ± 1.1 ^bd mmHg. Besides, in data set [2] (100 μM), the “+dP/dtmax” value is on record as 2,123 ± 82 ^bdf mmHg/s, the HR was 205 ± 26 beat·min^−1, the “−dP/dtmax” value is −1,313 ± 70 ^bdf mmHg/s and the “∆% +dP/dtmax” value worked out at 31.8 ± 5.3%. In addition, in data set [2] (100 μM), the “∆% LVDP” value is given as 44.7 ± 6.6%, the “∆% −dP/dtmax” value was determined as 20.9 ± 5.1% and the LVDP is on record as 79 ± 1.6 ^bdf mmHg. The “positive inotropic effect on the myocardium” value in data set [2] (normal isolated rat hearts, 1, 10, 100 μM) is recorded as “most potent prodrug”.

Regarding `Cc1nc(COC(=O)C(C)C)c(C)nc1COC(=O)C(C)C` [compound 4, 2,5-Di-iso-butyryloxymethyl-3,6-dimethylpyrazine], in data set [2] (1 μM), the “+dP/dtmax” value was 1,669 ± 103 mmHg/s, the HR stood at 213 ± 46 beat·min^−1, the “−dP/dtmax” value was −1,101 ± 102 mmHg/s and the “∆% +dP/dtmax” value is 2.2 ± 3.4%. Also, in data set [2] (1 μM), the “∆% LVDP” value was found to be 17.4 ± 9.8%, the “∆% −dP/dtmax” value came to 5.6 ± 8.3% and the LVDP is listed as 63 ± 3 ^b mmHg. Also, in data set [2] (10 μM), the “+dP/dtmax” value is recorded as 1,765 ± 52 ^a mmHg/s, the HR stood at 196 ± 16 beat·min^−1, the “−dP/dtmax” value is −1,196 ± 54 ^bc mmHg/s and the “∆% +dP/dtmax” value is listed as 4.9 ± 5.4%. In addition, in data set [2] (10 μM), the “∆% LVDP” value was determined as 14.2 ± 10.0%, the “∆% −dP/dtmax” value amounted to 9.9 ± 9.5% and the LVDP is given as 60 ± 4 ^a mmHg. In data set [2] (100 μM), the “+dP/dtmax” value is listed as 1,952 ± 49 ^bdf mmHg/s, the HR is given as 191 ± 29 beat·min^−1, the “−dP/dtmax” value is listed as −1,399 ± 61 ^bdf mmHg/s and the “∆% +dP/dtmax” value is 9.0 ± 8.9%. Also, in data set [2] (100 μM), the “∆% −dP/dtmax” value amounted to 16.7± 15.2% and the LVDP is reported as 73 ± 2.3 ^bdf mmHg.

In the case of `Cc1nc(COC(=O)c2ccccc2)c(C)nc1COC(=O)c1ccccc1` [compound 5, 2,5-Dibenzoyloxymethyl-3,6-dimethylpyrazine], in data set [2] (1 μM), the “+dP/dtmax” value is 1,688 ± 95 mmHg/s, the HR is recorded as 189 ± 30 beat·min^−1, the “−dP/dtmax” value is −1,095 ± 45 mmHg/s and the “∆% +dP/dtmax” value amounted to 1.0 ± 1.1%. Also, in data set [2] (1 μM), the “∆% LVDP” value came to 5.3 ± 3.3%, the “∆% −dP/dtmax” value is listed as 1.3 ± 0.8% and the LVDP is reported as 55 ± 5 mmHg. For the same molecule, in data set [2] (10 μM), the “+dP/dtmax” value was 1,831 ± 14 ^bd mmHg/s, the HR is 196 ± 40 beat·min^−1, the “−dP/dtmax” value was −1,245 ± 48 ^bd mmHg/s and the “∆% +dP/dtmax” value is 9.9 ± 5.9%. Also, in data set [2] (10 μM), the “∆% LVDP” value was 13.9 ± 7.4%, the “∆% −dP/dtmax” value came to 15.3 ± 2.8% and the LVDP is 59 ± 2.5 ^b mmHg. For the same molecule, in data set [2] (100 μM), the “+dP/dtmax” value is 1,962 ± 70 ^bdf mmHg/s, the HR amounted to 213 ± 41 beat·min^−1, the “−dP/dtmax” value was −1,314 ± 63 ^bde mmHg/s and the “∆% +dP/dtmax” value is 17.6 ± 6.8%. Besides, in data set [2] (100 μM), the “∆% LVDP” value was found to be 24.5 ± 11.2%, the “∆% −dP/dtmax” value came to 21.7 ± 7.2% and the LVDP is listed as 64 ± 2.4 ^bde mmHg.
